# Reference: US20260355147A1, “COMPOSITIONS COMPRISING TRIGONELLINE AND A UROLITHIN” (Amazentis SA, priority 2023, published 2026)
# Legend:
# C2C12 myotubes = assay: Mitochondrial respiration in C2C12 myotubes (Seahorse XF96, fatty acid oxidation analysis); assay type: cell-based, Mouse; conditions: 50 uM, 24 hours (FIG. 1)
# Description: A combined treatment of urolithin A and trigonelline was performed and mitochondrial respiration was measured in rodent skeletal muscle cells.
# Fatty acid oxidation analysis on C2C12 myotubes was measured with a Seahorse XF96 extracellular flux analyzer. C2C12s were seeded at 8,000 cells/well in an XF96 cell culture microplate. Once cells reached confluence, they were differentiated with DMEM (Gibco, 31966047) supplemented with 2% Horse serum, 1% PenStrep and 1% Hepes for 5 days. Cells were treated with UA 50 uM and Trigonelline 50 uM (Sigma, T5509) for 24 hours in substrate-limited media (Gibco, A1443001) supplemented with 0.5 mM glucose, 1 mM glutamine, 1% Oleic acid and 0.5 mM L-Carnitine. Maximal respiration was monitored by injection of 3 μM FCCP in the cartridge. Prior to the assay, cells were incubated in a Fatty acid oxidation medium (111 mM NaCl, 4.7 mM KCl, 1.25 mM CaCl2, 2 mM MgSO4, 1.2 mM NaH2PO4, 5 mM L-Carnitine, 5 mM Hepes, 2.5 mM Glucose) for 20 min, solution must be adjusted to pH 7.4 at 37 °C.
# [1] = test system: HSMM human primary skeletal muscle myoblasts; assay: Mitochondrial respiration (oxygen consumption rate) in human primary skeletal muscle myoblasts HSMM (Seahorse XF96); assay type: cell-based; conditions: 24 hours, normalized over cellular DNA content
# Description: Cells were treated as indicated with Urolithin A (UA) 6.25 uM and trigonelline (Trig) 500 uM, alone or in combination. DMSO 0.1% was used as control. Data are expressed as mean+/−SD. One-Way ANOVA, * p.val.<0.05.
# A combined treatment of urolithin A and trigonelline was performed and mitochondrial respiration was measured in human primary skeletal muscle cells.
# Mitochondrial respiration was measured as oxygen consumption rate on HSMM (LZ-CC-2580, Lonza), human primary skeletal muscle myoblasts was measured with a Seahorse XF96 extracellular flux analyzer. HSMMs were seeded at 3,500 cells/well in an XF96 cell culture microplate and cultured at 37 °C in a humidified atmosphere of 5% C02 in SKM-M Growth medium (AMSbio). […] Oxygen consumption rate was measured in Krebs Cycle medium (135 mM NaCl, KCL 3.6 mM, 0.5 mM NaH2PO4, 0.5 mM MgSO4, 10 mM HEPES, 5 mM NaHCO3) supplemented with 10 mM Glucose, 10 mM pyruvate and 2 mM Glutamine. Maximal respiration was monitored by injection of 6 μM FCCP in the cartridge. To normalize for differences in cell number across well, cellular DNA content was measured in the same microplate using the CyQuant NF kit (Thermofisher, C35006), following the manufacturer's instructions. Normalized mitochondrial respiration was then calculated as ratio between oxygen consumption rate and DNA content and expressed as fold change over the DMSO of the basal condition.
# C2C12 muscle cell line = conditions: Ryu, D. et al. Nature Medicine 2016, 22, 879; cited from earlier work
# human cells = conditions: at this dose (50 uM); FIG. 1 of US 2022/0241259 A1; cited from earlier work
# HSMM myotubes = conditions: only at 1000 uM, 72 h, with simultaneous blocking of NAD+ salvage pathway with FK866; cited from earlier work
# skeletal muscle cells = conditions: cited from earlier work
# rodent tissues = conditions: in vivo; cited from earlier work
# C. elegans = conditions: in vivo; cited from earlier work
# muscle mass = conditions: in vivo; cited from earlier work
SMILES,mitochondrial respiration (C2C12 myotubes; urolithin A alone),"mitochondrial respiration ([1]; urolithin A alone, 6.25 uM)",mitochondrial respiration (C2C12 muscle cell line),mitochondrial respiration (C2C12 myotubes; trigonelline alone),"mitochondrial respiration ([1]; trigonelline alone, 500 uM)",biological effect on NAD production in human cells (human cells),mitochondrial respiration in HSMM myotubes (HSMM myotubes),NAD^+ levels in skeletal muscle cells (skeletal muscle cells),NAD^+ levels in rodent tissues (rodent tissues),lifespan in C. elegans models (C. elegans),muscle mass in rodents (muscle mass)
"O=c1oc2cc(O)ccc2c2ccc(O)cc12 [Urolithin A, urolithin A]",induced mitochondrial respiration,induced mitochondrial respiration,induced mitochondrial respiration as shown previously in the C2C12 muscle cell line,,,,,,,,
C[n+]1cccc(C(=O)[O-])c1 [trigonelline],,,,Mitochondrial respiration was also increased,Mitochondrial respiration was also increased,not shown to have a significant biological effect on NAD production,improvement in mitochondrial respiration,help to increase NAD^+ levels,help to increase NAD^+ levels,increase lifespan,induce muscle mass
